The source made the active and inactive calls.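 Rule for the calls: active = growth-inhibition EC50 no more than tenfold above the top tested dose; inconclusive = flat fit between 30% and 70% inhibition, or unreliable fit; inactive = EC50 more than tenfold above the top tested dose.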
What follows are compounds tested on E. coli NEB5alpha growth, BacTiter-Glo luminescence, 4 h (assay: Escherichia coli growth inhibition, dose response, counter-screen for MEX-5/POS-1 RNA-binding inhibitor project, luminescence, NEB5alpha (AID 1959);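 note: pUC19-transformed ampicillin-resistant cells grown in LB with ampicillin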).

Row | SMILES | EC50
1 | CCNC(=S)N(C)CCc1cc2c(c(OC)c1C=C1C(=O)N(C)C(=O)N(C)C1=O)OCO2 | > 11 µM (inactive)
2 | Cc1cc(/C=C2\C(=O)NC(=O)N(c3ccc(Br)cc3)C2=O)c(C)n1-c1cc(C(=O)O)cc(C(=O)O)c1 | > 11 µM (inactive)
3 | O=c1[nH]c(=O)n(CC2CCCO2)c(O)c1/C=C1\C=Nc2ccccc21 (stereo unspecified) | > 11 µM (inactive)
4 | CCN1C(=O)/C(=C2\SC(=S)N(NC(=O)c3ccccc3O)C2=O)c2ccccc21 | > 11 µM (inactive)
5 | Cc1nc(N=Nc2ccc(O)cc2)n[nH]1 | > 11 µM (inactive)
6 | Cc1ccc(Cl)c2c(N=Nc3ccccc3)c(O)[nH]c12 | > 11 µM (inactive)
7 | FC(F)(F)c1cc(C(F)(F)F)n2nc(-c3sccc3-n3cccc3)cc2n1 | > 11 µM (inactive)
8 | Cn1c(C(=O)NCCCN2CCOCC2)cc2c(=O)n(C)c3ccccc3c21 | > 11 µM (inactive)
9 | COc1cccc(=O)c2c(C)oc(C)c12 | > 11 µM (inactive)
10 | Cc1cccn2c(=O)c3cc(S(=O)(=O)c4ccccc4)c(=N)n(CC4CCCO4)c3nc12 (stereo unspecified) | > 11 µM (inactive)
11 | Cc1ccc(N2C(=O)NC(=O)/C(=C\c3cc(C)n(-c4ccc(C(=O)O)cc4)c3C)C2=O)cc1 | > 11 µM (inactive)
12 | Cc1ccc(C(=O)CSc2nc3c([nH]2)c(=O)n(C)c(=O)n3C)cc1 | > 11 µM (inactive)
13 | CCCn1c(O)c(CN2CCCCC2)c(C)c(C#N)c1=O | > 11 µM (inactive)
14 | CC1(O)C(=O)C=C2C=C(C3CC3)OC=C2C1=O (stereo unspecified) | > 11 µM (inactive)
15 | CCOC(=O)C1=C2NC(=O)c3ccccc3N2C(=O)C1 | > 11 µM (inactive)
16 | COc1ccc(N2C(=O)NC(=O)/C(=C/c3ccc([N+](=O)[O-])s3)C2=O)cc1 | > 11 µM (inactive)
17 | COc1cc(C2C(C#N)=C(N)OC3=C2C(=O)CC(C)(C)C3)cc2c1OCO2 (stereo unspecified) | > 11 µM (inactive)
18 | COc1ccc(C2C(C#N)=C(N)OC3=C2C(=O)CCC3)cc1Cn1nc(C)c([N+](=O)[O-])c1C (stereo unspecified) | > 11 µM (inactive)
19 | CCN(CC)C(=O)c1sc2nc(-c3cccs3)cc(-c3cccs3)c2c1N | > 11 µM (inactive)
20 | O=[N+]([O-])c1ccccc1S(=O)(=O)n1nnc2ccccc21 | > 11 µM (inactive)
21 | CC1(C)CC(=O)C2=C(C1)OC(N)=C(C#N)[C@@H]2c1ccccc1[N+](=O)[O-] | > 11 µM (inactive)
22 | Cc1ccc(/C=C2\C(=O)NC(=S)N(c3cccc(F)c3)C2=O)o1 | > 11 µM (inactive)
23 | CN1CCc2c(sc(NC(=O)c3ccc4ccccc4c3)c2C(N)=O)C1 | > 11 µM (inactive)
24 | Cc1ccc(NC(=O)COc2ccc(/C=C3/SC(=Nc4ccccc4)N(Cc4cccnc4)C3=O)cc2)cc1 | > 11 µM (inactive)

Row | SMILES | EC50
25 | CN1C(=O)C(=Cc2ccc(Sc3ccccc3)o2)C(=O)N(C)C1=S | > 11 µM (inactive)
26 | O=C(O)CCCCCn1c(SCC(=O)c2ccc(O)c(O)c2)nc2ccsc2c1=O | > 11 µM (inactive)
27 | COC(=O)CCCC1=CC2=CC(=O)C(C)(O)C(=O)C2=CO1 (stereo unspecified) | > 11 µM (inactive)
28 | CCCCC1=CC2=CC(=O)C(C)(OC(=O)c3ccco3)C(=O)C2=CO1 (stereo unspecified) | > 11 µM (inactive)
29 | Cc1ncc(CO)c(/C=N/NC(=O)c2cc(Br)ccc2O)c1O | > 11 µM (inactive)
30 | OCCCNc1ncnc2sc3c(c12)CCN(Cc1ccccc1)C3 | > 11 µM (inactive)
31 | Cc1ccc(/C(O)=C/c2nc3ccccc3oc2=O)cc1 | > 11 µM (inactive)
32 | CCSC1=N/C(=C\c2ccccc2)C(=O)N1 | > 11 µM (inactive)
33 | CN(C)C1C(=O)C(C(N)=O)=C(O)C2(O)C(=O)C3=C(O)c4c(O)cccc4C(C)(O)C3C(O)C12 (stereo unspecified) | 8.68 µM
34 | OC(C#Cc1ccccn1)c1cccs1 (stereo unspecified) | > 11 µM (inactive)
35 | CC(C)N1CCc2c(sc(NC(=O)c3ccc4ccccc4c3)c2C(N)=O)C1 | > 11 µM (inactive)
36 | CCOC(=O)C1Nc2ccc(OC(F)(F)F)cc2C2C=CCC12 (stereo unspecified) | > 11 µM (inactive)
37 | CC1(OC(=O)c2ccc(Cl)nc2)C(=O)C=C2C=C(c3ccsc3)OC=C2C1=O (stereo unspecified) | > 11 µM (inactive)
38 | Cc1[nH][nH]c(=O)c1N=Nc1ccc(S(N)(=O)=O)cc1 | > 11 µM (inactive)
39 | CSc1nnc(SCc2nc3sc(C(=O)O)c(C)c3c(=O)[nH]2)s1 | > 11 µM (inactive)
40 | C[C@H]1c2cccc(O)c2C(O)=C2C(=O)[C@]3(O)C(O)=C(C(N)=O)C(=O)[C@@H](N(C)C)[C@@H]3[C@@H](O)[C@@H]21 | 4.67 µM
41 | COc1cccc2c1NC(C(=O)O)C1CC=CC21 (stereo unspecified) | > 11 µM (inactive)
42 | O=C(O)c1cccc(-n2cccc2/C=C\[N+](=O)[O-])c1 | > 11 µM (inactive)
43 | COc1cc(C2C(C#N)=C(N)OC3=C2C(=O)CCC3)cc2c1OCO2 (stereo unspecified) | > 11 µM (inactive)
44 | Cc1ccc2nc3sc(C(=O)N4CCOCC4)c(N)c3cc2c1 | > 11 µM (inactive)
45 | CCOC(=O)c1cnc(-n2nc(C)cc2C)nc1NNc1nc(C)cc(C)n1 | > 11 µM (inactive)
46 | c1ccc(-c2nc(-c3ccccn3)nc(-c3ccccn3)n2)nc1 | > 11 µM (inactive)
47 | CCN1C(=C(C#N)C#N)C=Cc2ccccc21 | > 11 µM (inactive)
48 | COc1ccc(-n2c(NNC(C)=O)nc3sc4c(c3c2=O)CCCC4)cc1 | > 11 µM (inactive)

Row | SMILES | EC50
49 | Cc1ccc(Nc2ccc([N+](=O)[O-])ccc2=O)cc1 | > 11 µM (inactive)
50 | Cc1ccc(Oc2nc(-c3ccccn3)nc3ccccc23)cc1 | > 11 µM (inactive)
51 | CC(C)(C)OC(=O)NCCCC1=CC2=CC(=O)C(C)(OC(=O)C3CCCC3)C(=O)C2=CO1 (stereo unspecified) | > 11 µM (inactive)
52 | O=C(/C=C(\O)c1ccccc1)C(=O)NNC(=O)c1ccccc1[N+](=O)[O-] | > 11 µM (inactive)
53 | CCOC(=O)C(C(=O)OCC)c1cc(Br)c2noc3c2c1C(=O)c1ccccc1-3 | > 11 µM (inactive)
54 | O=C(O)CCc1ccc(-c2ccccc2)n1-c1cccc(C(=O)O)c1 | > 11 µM (inactive)
55 | COc1ccc2c(c1)c1nc3ccccc3nc1n2CCn1c(=O)oc2ccccc21 | > 11 µM (inactive)
56 | COC(=O)c1ccc(-n2c(CCC(=O)O)ccc2-c2ccccc2)cc1 | > 11 µM (inactive)
57 | Cc1cc(C(=O)N/N=C/c2cc(Cl)cc([N+](=O)[O-])c2O)n[nH]1 | > 11 µM (inactive)
58 | CCOC(=O)c1ccc2c(c1)C1C=CCC1C(C(=O)OCC)N2 (stereo unspecified) | > 11 µM (inactive)
59 | CC1(OC(=O)C2CCCC2)C(=O)C=C2C=C(C3CC3)OC=C2C1=O (stereo unspecified) | > 11 µM (inactive)
60 | CCCn1cc2c3c(cccc31)C1CC(C)CN(C)C1C2 (stereo unspecified) | > 11 µM (inactive)
61 | CN1C(=O)/C(=C/c2ccc(N3CCCCCC3)o2)C(=O)NC1=S | > 11 µM (inactive)
62 | Nc1ccc(Nc2ccccc2)c(S(=O)(=O)O)c1 | > 11 µM (inactive)
63 | CC(=O)Nc1ccc(/C=C/C(=O)c2ccc3c(c2)OCCO3)cc1 | > 11 µM (inactive)
64 | COC(=O)C1=C(C)N(Cc2ccccc2)C(=NCC(C)C)N[C@H]1c1ccccc1 | > 11 µM (inactive)
65 | O=C(O)CCc1ccc(-c2cccs2)n1-c1ccc(C(=O)O)cc1 | > 11 µM (inactive)
66 | O=C(NCCF)C1Nc2ccc(OC(F)(F)F)cc2C2C=CCC12 (stereo unspecified) | > 11 µM (inactive)
67 | Cc1ccc(C2C3CN(C(C)C)CC=C3C(C#N)=C(N)C2(C#N)C#N)cc1 (stereo unspecified) | > 11 µM (inactive)
68 | CCOC(=O)COn1c(=O)c(-c2cc3ccccc3o2)[n+]([O-])c2ccccc21 | > 11 µM (inactive)
69 | Cc1ccc(N=Nc2c(O)[nH]c3ccc(F)cc23)cc1 | > 11 µM (inactive)
70 | CSc1ccc(C2C(C(=O)c3ccco3)=C(O)C(=O)N2c2nnc(SC)s2)cc1 (stereo unspecified) | > 11 µM (inactive)
71 | COc1cc(-c2cc(=O)c3c(O)c(OC)c(OC)c(O)c3o2)ccc1O | > 11 µM (inactive)
72 | CC(C)CNC(=O)c1ccc(C2SCC(=O)N2Cc2ccccc2)cc1 (stereo unspecified) | > 11 µM (inactive)

Row | SMILES | EC50
73 | COc1cccc(C2C(C#N)=C(N)OC3=C2C(=O)CC(c2ccco2)C3)c1OCc1ccc(F)cc1 (stereo unspecified) | > 11 µM (inactive)
74 | Nc1c(NCCC2=CCCCC2)c(=O)[nH]c(=O)n1Cc1ccccc1 | > 11 µM (inactive)
75 | CCN(CC)c1ccc(N=Cc2c(O)n(-c3ccc(OC)cc3)c(=O)[nH]c2=O)cc1 | > 11 µM (inactive)
76 | CCc1c(C(=O)NNC(=S)Nc2ccc(S(=O)(=O)Nc3ncccn3)cc2)csc1C | > 11 µM (inactive)
77 | Cc1cc(/C=C2/C(=O)NC(=O)N(c3ccccc3)C2=O)c(C)n1-c1ccc(F)cc1 | > 11 µM (inactive)
78 | CCn1c(/C=C/c2ccc([N+](=O)[O-])o2)nc2ccccc2c1=O | > 11 µM (inactive)
79 | COc1ccc(/C=C2\SC(=S)N(CCC(=O)NC3CCCC3)C2=O)cc1OC | > 11 µM (inactive)
80 | Nc1ccc2nc(-c3cccc(-c4nc5ccc(N)cc5[nH]4)n3)[nH]c2c1 | > 11 µM (inactive)
81 | O=C1c2ccccc2C(=O)C1c1ccc2ccccc2n1 | > 11 µM (inactive)
82 | Cc1cccc(/C=C(\C(=O)C(=O)O)c2ccc3ccccc3n2)c1 | > 11 µM (inactive)
83 | CCOC(=O)c1c2ccc(OCC(=O)N/N=C/c3ccc(C)cc3)cc2n2ccccc12 | > 11 µM (inactive)
84 | C/C(=N\Nc1ccc(Cl)c(C(=O)O)c1)c1ccc[nH]1 | > 11 µM (inactive)
85 | COc1ccccc1Nc1nc2nonc2nc1N1CCCCC1C (stereo unspecified) | > 11 µM (inactive)
86 | C=CCNC(=S)Nc1cc(Cl)ccc1OC | > 11 µM (inactive)
87 | CCOC(=O)c1c(NC(=O)CC2Nc3ccccc3NC2=O)sc(C)c1C (stereo unspecified) | > 11 µM (inactive)
88 | Cc1ccc(-c2[nH]c3cc(C(N)=O)ccc3c(=O)c2O)cc1 | > 11 µM (inactive)
89 | CCN(CC)C(=O)CSc1nnc2nnc3cc(Cl)ccc3n12 | > 11 µM (inactive)
90 | CCCSc1nnc(N2C(=O)C(O)=C(C(=O)c3ccco3)C2c2ccccc2F)s1 (stereo unspecified) | > 11 µM (inactive)
91 | Cc1cc(NS(=O)(=O)c2ccc(Nc3nc(-c4sc(N)nc4C)cs3)cc2)no1 | > 11 µM (inactive)
92 | Cc1ccc2[nH]c(O)c(N=Nc3ccccc3C)c2c1 | > 11 µM (inactive)
93 | CC(=NC1CCCC1)c1c(C)[nH]n(-c2nc3ccccc3s2)c1=O | > 11 µM (inactive)
94 | CCCCN1C(=O)/C(=C2/Sc3ccccc3N2C)S/C1=N\c1ncn[nH]1 | > 11 µM (inactive)
95 | Oc1c(Cl)cc(Cl)c(Cl)c1Cc1c(O)c(Cl)cc(Cl)c1Cl | > 11 µM (inactive)
96 | CCOC(=O)Cn1c2ccc(OC)cc2c2nc3ccccc3nc21 | > 11 µM (inactive)

Reference: PubChem BioAssay AID1959 (Broad Institute, 2009)
